Patent publication US20260130894A1, “COMPOSITION COMPRISING ISOQUINOLINE DERIVATIVE AS ACTIVE INGREDIENT FOR PREVENTION OR TREATMENT OF PARKINSON'S DISEASE” (ALTMEDICAL CO., LTD., priority 2022, published 2026)

Assays:
[1] = system: BEAS-2B cell line; assay: Mitophagy activity in BEAS-2B cells expressing mt-Keima (FACS, confocal microscope, mito-YFP); format: cell-based, human; conditions: BEAS-2B mt-Keima (FIG. 5)
Description: To analyze the mitophagy-promoting activity effect of the CD1-012 synthesized in the Example 1, the BEAS-2B cell line, which is a human normal lung cell line, was induced to express the mt-Keima fluorescent protein. Following this, the CD1-012 (15 μM) and the compound of Comparative Example 1, CCCP (10 μM), were treated for 24 hours. After the treatment, the mitophagy activity of each sample was measured, and the results were represented in FIGS. 1A to 1C.
Specifically, FIG. 1A represents the analysis results using flow cytometry (FACS) (treatment of CD1-012 at 15 μM for 24 hours), FIG. 1B represents the analysis results using a confocal microscope (treatment of CD1-012 at 15 μM for 18 hours), and FIG. 1C represents the measurement results of the quantitative changes in the mitochondria using a fluorescent protein, mito-YFP, which includes a targeting sequence to transport protein to the mitochondria (treatment of CD1-012 at 20 μM for 24 hours).
It was confirmed whether CD1-012 synthesized in Example 1 promotes mitophagy activity in a concentration- and time-dependent manner. To this end, the CD1-012 was treated at various concentrations or at a fixed concentration (15 μM) for different treatment durations in the BEAS-2B cell line expressing mt-Keima, and mitophagy activity was measured using a flow cytometer.
It was confirmed whether CD1-012 synthesized in Example 1 specifically increases only mitophagy activity. To this end, the BEAS-2B cell line expressing mt-Keima was treated with CD1-012 (15 μM) or Comparative Example 1 (CCCP, 10 μM) for 18 hours, and mitophagy activity was analyzed using a confocal microscope. Additionally, to measure autophagy activity, the BEAS-2B cell line expressing Keima fluorescent protein was incubated in Hanks' balanced salt solution (HBSS) for 3 hours to induce a starvation condition (starv.), and the results were compared with samples treated with CD1-012 (15 μM) for 18 hours using a confocal microscope.
To this end, the human normal lung cell line BEAS-2B, expressing mt-Keima fluorescent protein, was treated with CD1-012, Comparative Example 2 (palmatine), or Comparative Example 3 (berberine) at various concentrations, and the mitophagy-inducing activity of each sample was compared.

[2] = system: BEAS-2B cell line, in which PINK1 was knocked down; assay: Mitophagy activity in PINK1 knockdown (shPINK1) BEAS-2B cells (FACS); format: cell-based, human; conditions: CCCP 10 μM, CD1-012 15 μM, 18 hours (FIG. 7)
Text: In this example, it was confirmed whether the mitophagy activation function of the isoquinoline derivative according to the present invention is dependent on the PINK1-Parkin pathway. […]
In the following example, it was confirmed whether the novel isoquinoline derivative according to the present invention has a therapeutic effect of preventing or improving Parkinson's disease. Most of all, it was confirmed whether the treatment with the isoquinoline derivative improves mitochondrial dysfunction of a Parkinson's disease cell model. To this end, first, the induction of mitophagy by CD1-012 was verified. […] In addition, to analyze whether the mitophagy-promoting activity of CD1-012 is dependent on PINK1, PINK1 expression was inhibited (using shPNIK1) in BEAS-2B cells, which is a human normal lung cell line expressing a mitochondrial fluorescent protein, and mitophagy activity was analyzed by flow cytometry (FACS).

[3] = system: mitochondrial reactive oxygen species (ROS); assay: Mitochondrial reactive oxygen species, MitoSOX assay; format: cell-based; conditions: CD1-012 10 μM or 15 μM, CCCP 10 μM, 24 hours (FIG. 6)
Description: (§1) It was confirmed whether the isoquinoline derivative according to the present invention induces mitochondrial dysfunction, similar to CCCP. To this end, the CD1-012 (10 μM or 15 μM) and CCCP (10 μM) were treated for 24 hours, and the mitochondrial membrane potential and mitochondrial reactive oxygen species (ROS) levels in each sample were analyzed. Mitochondrial membrane potential was analyzed using the TMRM (tetramethylrhodamine methyl ester) assay, and mitochondrial ROS levels were analyzed using the MitoSOX assay.

[4] = system: mitochondrial membrane potential; assay: Mitochondrial membrane potential, TMRM assay; format: cell-based; conditions: CD1-012 10 μM or 15 μM, CCCP 10 μM, 24 hours (FIG. 6)
Description: as §1

Compound	concentration at which mitophagy activity reached its maximum [1] [µM]	mitophagy activation in PINK1 knockdown cell line (shPINK1) compared to control cell line (shNT) [2]	mitochondrial ROS levels [3]	mitochondrial membrane potential [4]
COc1cc2c(cc1OC)-c1cc3ccc(OC)c(OC)c3c[n+]1CC2 [palmatine, Palmatine, reference compound]	400			
COc1ccc2cc3[n+](cc2c1OC)CCc1cc2c(cc1-3)OCO2 [berberine, Berberine, reference compound]	80			
N#CC(C#N)=NNc1cccc(Cl)c1 [CCCP, Carbonyl cyanide 3-chlorophenylhydrazone, reference compound]		significantly decreased	significantly increased	significantly reduced
